In US20150148320A1, “COSMETIC USE OF SALICYLIC ACID DERIVATIVES” (Avon Products, Inc., priority 2013, published 2015):

Key:
[1] = molecular target: T1, recombinant human (rh) KLK5 (Homo sapiens, UniProt Q9Y337); experiment: Enzymatic activity of Kallikrein 5 (KLK5), fluorogenic peptide substrate Boc-V-P-R-AMC; type: biochemical
T1 construct: purchased R&D Systems 1108-SE
T1 sequence (Q9Y337 23-293): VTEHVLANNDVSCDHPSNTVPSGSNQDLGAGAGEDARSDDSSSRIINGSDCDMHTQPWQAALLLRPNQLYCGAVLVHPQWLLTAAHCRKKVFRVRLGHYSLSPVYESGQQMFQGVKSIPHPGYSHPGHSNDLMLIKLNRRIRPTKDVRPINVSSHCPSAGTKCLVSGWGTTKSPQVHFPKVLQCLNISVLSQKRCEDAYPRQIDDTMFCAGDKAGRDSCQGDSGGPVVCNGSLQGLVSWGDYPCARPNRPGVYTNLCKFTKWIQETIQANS
Protocol: Compound 1 was assayed for enzymatic activity of Kallikrein 5 (KLK5) as follows, and its activity compared to that of salicylic acid. The KLK5 activity of compound 1 was calculated as a percentage of KLK5 activity relative to salicylic acid. The KLK5 activity of compound 1 was about 165% relative to the KLK5 activity of salicylic acid.
In the stratum corneum, skin's outermost layer, cell-to-cell cohesion depends primarily on proteins known as the corneodesmosomes. During skin remodeling and renewal dead cells are shed from the skin surface by the action of native proteases that break down the corneodesmosomes. […] Hypothetically, up-regulation of the activities of these proteases using different active candidates could be utilized to increase the rate of shedding of dead skin, thus providing a natural means for skin exfoliation. To this end, the enzymatic activity of a member of the KLK family, recombinant human (rh) KLK5, was monitored following pre-incubation with actives and measuring the rate of peptide bond cleavage of a synthetic substrate.
Enzymatic activity of KLK5 was measured by incubating recombinant human (rh) KLK5 protease (R&D Systems, Cat No. 1108-SE) with a specific fluorogenic peptide substrate Boc-V-P-R-AMC (R& D Systems, Cat No. ES011). The substrate is conjugated to a quenched fluorescent group. […] Increase in fluorescence reading indicates an increase in rhKLK5 activity. […] After 60 seconds of incubation, fluorescence was measured at 340 nm (Excitation wavelength) and 485 nm (Emission wavelength) every 1 minute for 7 minutes. Rate (kinetics) of enzyme activity was calculated as follows: Rate of enzyme activity=Change of fluorescent reading (after background correction) Change of reaction time (min) Percent change of activity due to a test compound was calculated by comparing rate of enzyme activity in the presence of the test compound to that of a control without the test compound and statistical significance was calculated using a t-test. […]

[2] = Skin PAMPA parallel artificial membrane penetration assay; type: in vitro ADME; details: 50 μM, donor pH 4.25, acceptor pH 7.4, two hours incubation
Protocol: Several salicylic acid derivatives were assessed for their ability to penetrate skin. Each of the compounds was formulated in an aqueous buffer, with a final pH of 4.25 at a concentration of 50 μM. The skin permeability of the compounds was measured using a high throughput transdermal permeability model, the parallel artificial membrane penetration assay (Skin PAMPA™), which uses a skin mimetic artificial membrane that simulates the barrier properties of the strateum corneum.
Briefly, the Skin PAMPA™ assay is a sandwich assay that utilizes two 96-well plate assemblies, one of which acts as the acceptor chambers (comprising a buffer), and one of which acts as the donor chambers (comprising a buffer and the compound to be tested). […] After an incubation period, the donor and acceptor chambers are analyzed for the amount of compound present.
In the current experiments, the acceptor chamber included an acceptor solution made from Prisma™ HT buffer solution (Pion, Inc.) that was adjusted to a pH of 7.4±0.05 using 1.0 M NaOH, and the donor chamber included a donor solution made from Prisma™ HT buffer solution (Pion, Inc.) that was adjusted to a pH of 4.25±0.05 using 1.0 M NaOH. […] Effective permeability was then calculated by the same method as Sinko et al., Eur. J. Pharm. […]

stimulation of KLK5 (in words) ([1]; rhKLK5): very potent stimulator of KLK5
KLK5 activity as a percentage relative to the KLK5 activity of salicylic acid ([1]; rhKLK5, rate of enzyme activity relative to salicylic acid): about 165%
KLK5 activity as compared to salicylic acid (in words) ([1]; rhKLK5, FIG. 1 asterisk): superior KLK5 activity
skin permeability as compared to salicylic acid (in words) [2]: higher permeability
SMILES: CCOC(=O)c1cc2c(c(C(=O)OCC)c1O)CCCC2 [Compound 1]
